Laboratory results from US20070128217A1 (priority 2003, published 2007).

What was measured:
[1] = tested on: antibodies in sera from SARS patients (sera 1a, 1b, 2, 6, 37, 62, London, SARS-yellow, SARS-green); format: binding, human; parameters: Binding of serum 6 to linear peptides of protein X1 of SARS-CoV Urbani / Binding of serum 37 to linear peptides of protein X1 of SARS-CoV Urbani / Binding of serum 6 to looped/cyclic peptide (PEPSCAN-ELISA) / Binding of serum 37 to looped/cyclic peptide (PEPSCAN-ELISA) / Binding of serum 37 to looped/cyclic peptides of protein X1 of SARS-CoV Urbani / Binding of serum 6 to linear peptides of protein X2 / Binding of serum 37 to linear peptides of protein X2 / Binding of serum 37 to looped/cyclic peptides of protein X2 of SARS-CoV Urbani / Binding of serum 6 to linear peptides of protein M of SARS-CoV Urbani / Binding of serum 37 to linear peptides of protein M of SARS-CoV Urbani / Binding of serum 6 to looped/cyclic peptides of protein M of SARS-CoV Urbani / Binding of serum 37 to looped/cyclic peptides of protein M of SARS-CoV Urbani / Binding of serum 6 to linear peptides of protein X3 of SARS-CoV Urbani / Binding of serum 37 to linear peptides of protein X3 of SARS-CoV Urbani / Binding of serum 37 to looped/cyclic peptides of protein X3 of SARS-CoV Urbani / Binding of serum 6 to linear peptides of protein X4 of SARS-CoV Urbani / Binding of serum 37 to linear peptides of protein X4 of SARS-CoV Urbani / Binding of serum 37 to looped/cyclic peptides of protein X4 of SARS-CoV Urbani / Binding of serum 6 to linear peptides of protein X5 of SARS-CoV Urbani / Binding of serum 37 to linear peptides of protein X5 of SARS-CoV Urbani / Binding of serum 37 to looped/cyclic peptides of protein X5 of SARS-CoV Urbani / Binding of serum 6 to linear peptides of protein N of SARS-CoV Urbani / Binding of serum 37 to linear peptides of protein N of SARS-CoV Urbani / Binding of serum 6 to linear peptide (PEPSCAN-ELISA) / Binding of serum 1a to looped/cyclic peptides of protein N of SARS-CoV Urbani / Binding of serum 1b to looped/cyclic peptides of protein N of SARS-CoV Urbani / Binding of serum 2 to looped/cyclic peptides of protein N of SARS-CoV Urbani / Binding of serum 6 to looped/cyclic peptides of protein N of SARS-CoV Urbani / Binding of serum 37 to looped/cyclic peptides of protein N of SARS-CoV Urbani / Binding of serum 62 to looped/cyclic peptides of protein N of SARS-CoV Urbani / Binding of serum London to looped/cyclic peptides of protein N of SARS-CoV Urbani / Binding of serum SARS-green to looped/cyclic peptides of protein N of SARS-CoV Urbani: unit not given here
[2] = tested on: control sera (pooled serum of ten healthy LUMC hospital workers; commercial negative donor pooled serum from the Dutch bloodbank); format: binding, human; parameters: Binding of Control serum LUMC to linear peptides / Binding of Control serum Blood-bank to linear peptides / Binding of Control serum LUMC to looped peptides / Binding of Control Serum Blood-Bank to Looped peptides / Binding of Control serum LUMC to linear peptides of the protein M of SARS-CoV Urbani / Binding of Control serum Blood-bank to linear peptides of the protein M of SARS-CoV Urbani / Binding of Control serum LUMC to looped peptides of the protein M of SARS-CoV Urbani / Binding of Control Serum Blood-Bank to Looped peptides of the protein M of SARS-CoV Urbani: unit not given here
[3] = tested on: rabbit serum obtained by immunizing a rabbit with the SARS-CoV strain Frankfurt 1; format: binding; parameters: Binding of a rabbit serum to linear peptides / Binding of a rabbit serum to looped peptides / Rabbit serum linear peptides / Rabbit serum looped peptides / Binding of a rabbit serum to linear peptides of protein N of SARS-CoV Urbani (Rabbit serum linear peptides) / Binding of a rabbit serum to looped/cyclic peptides of protein N of SARS-CoV Urbani (Rabbit serum looped peptides): unit not given here

RWQLALYKGFQFICN
Binding of serum 1a to linear peptides of protein X1 of SARS-CoV Urbani [1]: 0.7
Binding of serum 1a to looped/cyclic peptide (PEPSCAN-ELISA) [1]: 0.6
Binding of serum 1b to linear peptides of protein X1 of SARS-CoV Urbani [1]: 0.5
Binding of serum 1b to looped/cyclic peptide (PEPSCAN-ELISA) [1]: 0.4
Binding of serum 2 to linear peptides of protein X1 of SARS-CoV Urbani [1]: 0.5
Binding of serum 2 to looped/cyclic peptide (PEPSCAN-ELISA) [1]: 0.5
Binding of serum 6 to linear peptides of protein X1 of SARS-CoV Urbani [1]: 0.4
Binding of serum 6 to looped/cyclic peptide (PEPSCAN-ELISA) [1]: 0.9
Binding of serum 37 to linear peptides of protein X1 of SARS-CoV Urbani [1]: 0.6
Binding of serum 37 to looped/cyclic peptide (PEPSCAN-ELISA) [1]: 0.6
Binding of serum 62 to linear peptides of protein X1 of SARS-CoV Urbani [1]: 0.5
Binding of serum 62 to looped/cyclic peptide (PEPSCAN-ELISA) [1]: 0.6
Binding of serum London to linear peptides of protein X1 of SARS-CoV Urbani [1]: 0.3
Binding of serum London to looped/cyclic peptide (PEPSCAN-ELISA) [1]: 1.4
Binding of serum SARS-green to linear peptides of protein X1 of SARS-CoV Urbani [1]: 0.3
Binding of serum SARS-green to looped/cyclic peptide (PEPSCAN-ELISA) [1]: 0.3
Binding of serum SARS-yellow to linear peptides of protein X1 of SARS-CoV Urbani [1]: 0.2
Binding of serum SARS-yellow to looped/cyclic peptide (PEPSCAN-ELISA) [1]: 0.6
Binding of Control Serum Blood-Bank to Looped peptides [2]: 0.6
Binding of Control serum Blood-bank to linear peptides [2]: 0.6
Binding of Control serum LUMC to linear peptides [2]: 0.4
Binding of Control serum LUMC to looped peptides [2]: 0.6
Binding of a rabbit serum to linear peptides [3]: 0.3
Binding of a rabbit serum to looped peptides [3]: 0.9

RYNTRGNTYSTAWLC
Binding of serum 1a to linear peptides of protein X5 of SARS-CoV Urbani [1]: 0.8
Binding of serum 1a to looped/cyclic peptides of protein X5 of SARS-CoV Urbani [1]: 0.5
Binding of serum 1b to linear peptides of protein X5 of SARS-CoV Urbani [1]: 0.4
Binding of serum 1b to looped/cyclic peptides of protein X5 of SARS-CoV Urbani [1]: 0.0
Binding of serum 2 to linear peptides of protein X5 of SARS-CoV Urbani [1]: 0.5
Binding of serum 2 to looped/cyclic peptides of protein X5 of SARS-CoV Urbani [1]: 0.3
Binding of serum 6 to linear peptides of protein X5 of SARS-CoV Urbani [1]: 0.9
Binding of serum 6 to looped/cyclic peptides of protein X5 of SARS-CoV Urbani [1]: 0.1
Binding of serum 37 to linear peptides of protein X5 of SARS-CoV Urbani [1]: 0.4
Binding of serum 37 to looped/cyclic peptides of protein X5 of SARS-CoV Urbani [1]: 0.0
Binding of serum 62 to linear peptides of protein X5 of SARS-CoV Urbani [1]: 0.7
Binding of serum 62 to looped/cyclic peptides of protein X5 of SARS-CoV Urbani [1]: 0.2
Binding of serum London to linear peptides of protein X5 of SARS-CoV Urbani [1]: 1.0
Binding of serum London to looped/cyclic peptides of protein X5 of SARS-CoV Urbani [1]: 0.2
Binding of serum SARS-green to linear peptides of protein X5 of SARS-CoV Urbani [1]: 0.6
Binding of serum SARS-green to looped/cyclic peptides of protein X5 of SARS-CoV Urbani [1]: 0.1
Binding of serum SARS-yellow to linear peptides of protein X5 of SARS-CoV Urbani [1]: 0.2
Binding of serum SARS-yellow to looped/cyclic peptides of protein X5 of SARS-CoV Urbani [1]: 0.6
Binding of Control Serum Blood-Bank to Looped peptides [2]: 0.0
Binding of Control serum Blood-bank to linear peptides [2]: 0.7
Binding of Control serum LUMC to linear peptides [2]: 0.3
Binding of Control serum LUMC to looped peptides [2]: 0.1
Rabbit serum linear peptides [3]: 0.7
Rabbit serum looped peptides [3]: 0.0

SCELYHYQECVRGTT
Binding of serum 1a to linear peptides of protein X4 of SARS-CoV Urbani [1]: 0.8
Binding of serum 1a to looped/cyclic peptides of protein X4 of SARS-CoV Urbani [1]: 0.5
Binding of serum 1b to linear peptides of protein X4 of SARS-CoV Urbani [1]: 0.6
Binding of serum 1b to looped/cyclic peptides of protein X4 of SARS-CoV Urbani [1]: 0.4
Binding of serum 2 to linear peptides of protein X4 of SARS-CoV Urbani [1]: 0.4
Binding of serum 2 to looped/cyclic peptides of protein X4 of SARS-CoV Urbani [1]: 0.5
Binding of serum 6 to linear peptides of protein X4 of SARS-CoV Urbani [1]: 0.5
Binding of serum 6 to looped/cyclic peptides of protein X4 of SARS-CoV Urbani [1]: 0.5
Binding of serum 37 to linear peptides of protein X4 of SARS-CoV Urbani [1]: 0.7
Binding of serum 37 to looped/cyclic peptides of protein X4 of SARS-CoV Urbani [1]: 0.6
Binding of serum 62 to linear peptides of protein X4 of SARS-CoV Urbani [1]: 0.6
Binding of serum 62 to looped/cyclic peptides of protein X4 of SARS-CoV Urbani [1]: 0.5
Binding of serum London to linear peptides of protein X4 of SARS-CoV Urbani [1]: 0.8
Binding of serum London to looped/cyclic peptides of protein X4 of SARS-CoV Urbani [1]: 0.3
Binding of serum SARS-green to linear peptides of protein X4 of SARS-CoV Urbani [1]: 0.5
Binding of serum SARS-green to looped/cyclic peptides of protein X4 of SARS-CoV Urbani [1]: 0.2
Binding of serum SARS-yellow to linear peptides of protein X4 of SARS-CoV Urbani [1]: 0.2
Binding of serum SARS-yellow to looped/cyclic peptides of protein X4 of SARS-CoV Urbani [1]: 0.2
Binding of Control Serum Blood-Bank to Looped peptides [2]: 0.6
Binding of Control serum Blood-bank to linear peptides [2]: 0.5
Binding of Control serum LUMC to linear peptides [2]: 0.3
Binding of Control serum LUMC to looped peptides [2]: 0.8
Rabbit serum linear peptides [3]: 0.4
Rabbit serum looped peptides [3]: 0.0
